In the NIST ThermoML archive (doi:10.1016/j.jct.2018.03.013):

Assay: xn = mol fraction of the nth substance listed
Details: 100 kPa, Liquid; for speed of sound: Frequency=3 MHz, Linear variable-path acoustic interferometer; for mass density: Pycnometric method

C=C(C)C(=O)OCCCC [butyl 2-methyl-2-propenoate] + CC#N
Details | mass density, 308.15 K [kg/m3] | mass density, 313.15 K [kg/m3] | mass density, 318.15 K [kg/m3] | speed of sound, 308.15 K [m/s] | speed of sound, 313.15 K [m/s] | speed of sound, 318.15 K [m/s]
x2 = 0 | 881.07 | 876.35 | 871.64 | 1183 | 1163.8 | 1145.7
x2 = 0.0681 | 878.55 | 873.82 | 869.11 | 1185.9 | 1166.7 | 1148.6
x2 = 0.1359 | 875.74 | 871 | 866.27 | 1188.7 | 1169.6 | 1151.5
x2 = 0.1976 | 872.89 | 868.13 | 863.39 | 1191.2 | 1172.1 | 1154
x2 = 0.2728 | 868.98 | 864.2 | 859.43 | 1194.1 | 1175 | 1156.9
x2 = 0.3442 | 864.75 | 859.95 | 855.15 | 1196.8 | 1177.7 | 1159.6
x2 = 0.4143 | 860.01 | 855.18 | 850.35 | 1199.4 | 1180.4 | 1162.3
x2 = 0.4658 | 856.1 | 851.24 | 846.39 | 1201.4 | 1182.4 | 1164.3
x2 = 0.5243 | 851.13 | 846.24 | 841.36 | 1203.8 | 1184.8 | 1166.7
x2 = 0.5649 | 847.3 | 842.39 | 837.49 | 1205.6 | 1186.6 | 1168.4
x2 = 0.639 | 839.36 | 834.41 | 829.46 | 1209.1 | 1190.2 | 1171.9
x2 = 0.7112 | 830.15 | 825.14 | 820.14 | 1213.1 | 1194.2 | 1175.9
x2 = 0.7836 | 819.01 | 813.95 | 808.89 | 1218.1 | 1199.3 | 1180.9
x2 = 0.8558 | 805.37 | 800.24 | 795.11 | 1224.4 | 1205.7 | 1187.3
x2 = 0.928 | 788.25 | 783.04 | 777.83 | 1233 | 1214.3 | 1195.8
